Measured values published in patent US9751886B2, “4-amino-6-phenyl-6,7-dihydro[1,2,3]triazolo[1,5-A]pyrazine derivatives as inhibitors of beta-secretase (BACE)” (Janssen Pharmaceutica NV, priority 2013, dated 2017).

Experiments:
[1] = target: recombinant BACE1 protein (Homo sapiens (Human), UniProt P56817); experiment: BACE1 Biochemical FRET based assay - Method 2; conditions: 0.04 μg/ml BACE1, 20 μM substrate, 450 min, pH 5.0
Source text: (§1) This assay is a Fluorescence Resonance Energy Transfer Assay (FRET) based assay. The substrate for this assay is an APP derived 13 amino acids peptide that contains the ‘Swedish’ Lys-Met/Asn-Leu mutation of the amyloid precursor protein (APP) beta-secretase cleavage site. This substrate also contains two fluorophores: (7-methoxycoumarin-4-yl) acetic acid (Mca) is a fluorescent donor with excitation wavelength at 320 nm and emission at 405 nm and 2,4-Dinitrophenyl (Dnp) is a proprietary quencher acceptor. […] Upon cleavage by BACE1, the fluorophore Mca is separated from the quenching group Dnp, restoring the full fluorescence yield of the donor. The increase in fluorescence is linearly related to the rate of proteolysis.
Briefly in a 384-well format recombinant BACE1 protein in a final concentration of 0.04 μg/ml is incubated for 450 minutes at room temperature with 20 μM substrate in incubation buffer (50 mM Citrate buffer pH 5.0, 0.05% PEG) in the presence of compound or DMSO. Next the amount of proteolysis is directly measured by fluorescence measurement (excitation at 320 nm and emission at 405 nm) at different incubation times (0, 30, 60, 90, 120 and 450 min). For every experiment a time curve (every 30 min between 0 min and 120 min) is used to determine the time where we find the lowest basal signal of the high control. The signal at this time (Tx) is used to subtract from the signal at 450 min. Results are expressed in RFU, as difference between T450 and Tx.

[2] = tested on: Abeta 1-42 secreted by human neuroblastoma SKNBE2 cells expressing wild type hAPP695; experiment: BACE1 cellular αLisa assay in SKNBE2 cells, Abeta 1-42; type: cell-based; conditions: 18 hours incubation; for IC50: Homo sapiens, read-out: Cellular αLisa assay in SKNBE2 cells Abeta 42 pIC50 (converted)
Method: (§2) In two αLisa assays the levels of Abeta total and Abeta 1-42 produced and secreted into the medium of human neuroblastoma SKNBE2 cells are quantified. The assay is based on the human neuroblastoma SKNBE2 expressing the wild type Amyloid Precursor Protein (hAPP695). The compounds are diluted and added to these cells, incubated for 18 hours and then measurements of Abeta 1-42 and Abeta total are taken. Abeta total and Abeta 1-42 are measured by sandwich αLisa. αLisa is a sandwich assay using biotinylated antibody AbN/25 attached to streptavidin coated beads and antibody Ab4G8 or cAb42/26 conjugated acceptor beads for the detection of Abeta total and Abeta 1-42 respectively. In the presence of Abeta total or Abeta 1-42, the beads come into close proximity. The excitation of the donor beads provokes the release of singlet oxygen molecules that trigger a cascade of energy transfer in the acceptor beads, resulting in light emission.

[3] = tested on: Abeta total secreted by human neuroblastoma SKNBE2 cells expressing wild type hAPP695; experiment: BACE1 cellular αLisa assay in SKNBE2 cells, Abeta total; type: cell-based; conditions: 18 hours incubation; for IC50: Homo sapiens, read-out: Cellular αLisa assay in SKNBE2 cells Abetatotal pIC50 (converted)
Method: as §2

[4] = target: recombinant BACE2 protein (Homo sapiens (Human), UniProt Q9Y5Z0); experiment: BACE2 Biochemical FRET based assay; conditions: 0.4 μg/ml BACE2, 10 μM substrate, 450 min, pH 5.0
Source text: as §1, with “assay” for “assay is an APP derived 13 amino acids peptide that”, “the beta-secretase,” for “BACE1,”
Briefly in a 384-well format recombinant BACE2 protein in a final concentration of 0.4 μg/ml is incubated for 450 minutes at room temperature with 10 μM substrate in incubation buffer (50 mM Citrate buffer pH 5.0, 0.05% PEG, no DMSO) in the absence or presence of compound. Next the amount of proteolysis is directly measured by fluorescence measurement at T=0 and T=450 (excitation at 320 nm and emission at 405 nm). Results are expressed in RFU (Relative Fluorescence Units), as difference between T450 and TO.

[5] = tested on: brain levels of soluble Aβ42, Aβ40; experiment: In vivo Aβ lowering in non-transgenic rodents (MSD electrochemiluminescence); set-up: species or system mouse; conditions: untreated control = 100
Source text: To determine whether acute administration of an Aβ lowering agent would reduce Aβ levels in vivo, non-transgenic rodents, e.g. mice or rats were used. Animals treated with the Aβ lowering agent were examined and compared to those untreated or treated with vehicle and brain levels of soluble Aβ42, Aβ40, Aβ38, and Aβ37 were quantitated by Meso Scale Discovery's (MSD) electrochemiluminescence detection technology. Treatment periods varied from hours (h) to days and were adjusted based on the results of the Aβ lowering once a time course of onset of effect could be established.
A typical protocol for measuring Aβ lowering in vivo is shown but it is only one of many variations that could be used to optimize the levels of detectable A. For example, Aβ lowering compounds were formulated in 20% of Captisol® (a sulfo-butyl ether of β-cyclodextrin) in water or 20% hydroxypropyl β cyclodextrin. The Aβ lowering agents were administered as a single oral dose or by any acceptable route of administration to overnight fasted animals. […]
Blood was collected by decapitation and exsanguinations in EDTA-treated collection tubes. Blood was centrifuged at 1900 g for 10 minutes (min) at 4° C. and the plasma recovered and flash frozen for later analysis. The brain was removed from the cranium and hindbrain. The cerebellum was removed and the left and right hemisphere were separated. The left hemisphere was stored at −18° C. for quantitative analysis of test compound levels. The right hemisphere was rinsed with phosphate-buffered saline (PBS) buffer and immediately frozen on dry ice and stored at −80° C. until homogenization for biochemical assays.
Mouse brains from non-transgenic animals were resuspended in 8 volumes of 0.4% DEA (diethylamine)/50 mM NaCl containing protease inhibitors (Roche-11873580001 or 04693159001) per gram of tissue, e.g. for 0.158 g brain, add 1.264 ml of 0.4% DEA. All samples were homogenized in the FastPrep-24 system (MP Biomedicals) using lysing matrix D (MPBio #6913-100) at 6 m/s for 20 seconds. Homogenates were centrifuged at 20800×g for 5 min and supernatants collected. Supernatants were centrifuged at 221.300×g for 50 min. The resulting high speed supernatants were then transferred to fresh eppendorf tubes. Nine parts of supernatant were neutralized with 1 part 0.5 M Tris-HCl pH 6.8 and used to quantify Aβ.
To quantify the amount of Aβ42, Aβ40, Aβ38, and Aβ37 in the soluble fraction of the brain homogenates, simultaneous specific detection of Aβ42, Aβ40, Aβ38, and Aβ37 was performed using MSD's electro-chemiluminescence multiplex detection technology. In this assay purified monoclonal antibodies specific for Abeta37 (JRD/Aβ37/3), Abeta38 (J&JPRD/Aβ38/5), Abeta40 (JRF/cAβ40/28), and Abeta42 (JRF/cAβ(342/26) were coated on MSD 4-plex plates. Briefly, the standards (a dilution of synthetic Aβ42, Aβ40, Aβ38, and Aβ37) were prepared in 1.5 ml Eppendorf tube in Ultraculture, with final concentrations ranging from 10000 to 0.3 pg/m. The samples and standards were co-incubated with Sulfo-tag labelled JRF/rAβ/2 antibody to the N-terminus of Aβ as detector antibody. 50 μl of conjugate/sample or conjugate/standards mixtures were then added to the antibody-coated plate. The plate was allowed to incubate overnight at 4° C. in order to allow formation of the antibody-amyloid complex. Following this incubation and subsequent wash steps the assay was finished by adding read buffer according to the manufacturer's instructions (Meso Scale Discovery, Gaitherburg, Md.).
The SULFO-TAG emits light upon electrochemical stimulation initiated at the electrode. MSD Sector instrument SI6000 was used for signal read-out.
The results are shown in Table 8 (value for untreated animals as control (Ctrl) was set at 100): […]

[6] = dose 10, s.c., 2 h after administration
[7] = dose 10, s.c., 4 h after administration
[8] = dose 10, p.o., 2 h after administration
[9] = dose 10, p.o., 4 h after administration

recombinant BACE1 protein, sequence (P56817 46-501): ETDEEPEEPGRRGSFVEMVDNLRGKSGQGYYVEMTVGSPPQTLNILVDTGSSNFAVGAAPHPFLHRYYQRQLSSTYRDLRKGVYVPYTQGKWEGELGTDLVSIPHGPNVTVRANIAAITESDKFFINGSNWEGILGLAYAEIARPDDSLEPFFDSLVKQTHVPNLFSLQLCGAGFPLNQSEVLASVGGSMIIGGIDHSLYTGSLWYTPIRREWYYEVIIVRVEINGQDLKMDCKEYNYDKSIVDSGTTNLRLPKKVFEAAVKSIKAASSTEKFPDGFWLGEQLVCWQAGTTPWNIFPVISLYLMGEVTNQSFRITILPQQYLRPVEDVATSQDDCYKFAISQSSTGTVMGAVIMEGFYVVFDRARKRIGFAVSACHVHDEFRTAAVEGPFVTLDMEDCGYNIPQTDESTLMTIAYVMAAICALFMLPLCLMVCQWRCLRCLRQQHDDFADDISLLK
recombinant BACE2 protein, sequence (Q9Y5Z0 63-518): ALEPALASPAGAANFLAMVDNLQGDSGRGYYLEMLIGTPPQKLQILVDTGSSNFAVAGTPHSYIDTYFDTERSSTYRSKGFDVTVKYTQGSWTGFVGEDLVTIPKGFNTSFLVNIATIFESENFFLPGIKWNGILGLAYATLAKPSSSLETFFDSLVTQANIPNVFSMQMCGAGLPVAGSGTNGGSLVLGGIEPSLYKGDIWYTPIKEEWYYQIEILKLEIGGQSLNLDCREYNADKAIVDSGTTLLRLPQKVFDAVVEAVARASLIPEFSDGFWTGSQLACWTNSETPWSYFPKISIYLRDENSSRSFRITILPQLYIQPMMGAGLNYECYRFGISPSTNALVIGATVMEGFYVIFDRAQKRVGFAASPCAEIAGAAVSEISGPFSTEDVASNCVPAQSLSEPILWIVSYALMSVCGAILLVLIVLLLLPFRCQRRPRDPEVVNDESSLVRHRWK

Structure (SMILES) | IC50 [2] [nM] | IC50 [3] [nM] | BACE1 Biochemical FRET based assay - Method 2 pIC50 [1] | BACE2 Biochemical FRET based assay pIC50 [4] | further results
NC1=NC(CF)(c2cc(NC(=O)c3ccc(F)cn3)ccc2F)Cn2nncc21 (racemic) [Compound 9, (rac)-N-{3-[4-amino-6-(fluoromethyl)-6,7-dihydro[1,2,3]triazolo[1,5-a]pyrazin-6-yl]-4-fluorophenyl}-5-fluoropyridine-2-carboxamide] | 57.5 | 56.2 |  |  | IC50 ([1]; read-out: BACE1 Biochemical FRET based assay - Method 2 pIC50 (converted)): 8.32 nM; IC50 ([4]; read-out: BACE2 Biochemical FRET based assay pIC50 (converted)): 8.32 nM
NC1=N[C@@](CF)(c2cc(NC(=O)c3ccc(F)cn3)ccc2F)Cn2nncc21 [Compound 11, N-{3-[(6S)-4-amino-6-(fluoromethyl)-6,7-dihydro[1,2,3]triazolo[1,5-a]pyrazin-6-yl]-4-fluorophenyl}-5-fluoropyridine-2-carboxamide] | 4170 | 4470 | 6.12 | 6.3 | 
C[C@@]1(c2cc(NC(=O)c3cnc(OCC(F)(F)F)cn3)ccc2F)Cn2nncc2C(N)=N1 [Compound 6, N-{3-[(6R)-4-amino-6-methyl-6,7-dihydro[1,2,3]triazolo[1,5-a]pyrazin-6-yl]-4-fluoropheny}-5-(2,2,2-trifluoroethoxy)pyrazine-2-carboxamide] |  |  | 8.51 | 7.22 | Cellular αLisa assay in SKNBE2 cells Abeta 42 pIC50 [2]: 8.28; Cellular αLisa assay in SKNBE2 cells Abetatotal pIC50 [3]: 8.32
C[C@@]1(c2cc(NC(=O)c3ccc(C#N)cn3)ccc2F)Cn2nncc2C(N)=N1 [Compound 2, N-{3-[(6R)-4-Amino-6-methyl-6,7-dihydro[1,2,3]triazolo[1,5-a]pyrazin-6-yl]-4-fluorophenyl}-5-cyanopyridine-2-carboxamide] | 1.1 | 1.05 |  |  | Aβ40 (% vs Ctrl)_Mean [5, 6]: 44 % vs Ctrl; Aβ42 (% vs Ctrl)_Mean [5, 6]: 44 % vs Ctrl; Aβ40 (% vs Ctrl)_Mean [5, 7]: 61 % vs Ctrl; Aβ42 (% vs Ctrl)_Mean [5, 7]: 50 % vs Ctrl
NC1=N[C@](CF)(c2cc(NC(=O)c3ccc(F)cn3)ccc2F)Cn2nncc21 [Compound 10, N-{3-[(6R)-4-amino-6-(fluoromethyl)-6,7-dihydro[1,2,3]triazolo[1,5-a]pyrazin-6-yl]-4-fluorophenyl}-5-fluoropyridine-2-carboxamide] | 24.5 | 24.5 | 8.39 | 8.49 | Aβ40 (% vs Ctrl)_Mean [5, 8]: 95 % vs Ctrl; Aβ42 (% vs Ctrl)_Mean [5, 8]: 79 % vs Ctrl; Aβ40 (% vs Ctrl)_Mean [5, 9]: 116 % vs Ctrl; Aβ42 (% vs Ctrl)_Mean [5, 9]: 87 % vs Ctrl
C[C@@]1(c2cc(NC(=O)c3nn(C(F)F)cc3Cl)ccc2F)Cn2nncc2C(N)=N1 [Compound 5, N-{3-[(6R)-4-Amino-6-methyl-6,7-dihydro[1,2,3]triazolo[1,5-a]pyrazin-6-yl]-4-fluorophenyl}-4-chloro-1-(difluoromethyl)-1H-pyrazole-3-carboxamide] | 3.72 | 3.09 | 8.72 | 8.73 | 
C[C@@]1(c2cc(NC(=O)c3ccc(F)cn3)cc(F)c2F)Cn2nncc2C(N)=N1 [Compound 8, N-{3-[(6R)-4-Amino-6-methyl-6,7-dihydro[1,2,3]triazolo[1,5-a]pyrazin-6-yl]-4,5-difluorophenyl}-5-fluoropyridine-2-carboxamide] | 4.68 | 4.47 | 8.36 |  | Aβ40 (% vs Ctrl)_Mean [5, 6]: 56 % vs Ctrl; Aβ42 (% vs Ctrl)_Mean [5, 6]: 56 % vs Ctrl; Aβ40 (% vs Ctrl)_Mean [5, 7]: 136 % vs Ctrl; Aβ42 (% vs Ctrl)_Mean [5, 7]: 105 % vs Ctrl
C[C@@]1(c2cc(NC(=O)c3cnc(OCF)cn3)ccc2F)Cn2nncc2C(N)=N1 [Compound 7, N-{3-[(6R)-4-amino-6-methyl-6,7-dihydro[1,2,3]triazolo[1,5-a]pyrazin-6-yl]-4-fluoropheny}-5-(fluoromethoxy)pyrazine-2-carboxamide] |  |  | 8.52 | 7.78 | Cellular αLisa assay in SKNBE2 cells Abeta 42 pIC50 [2]: 8.87; Cellular αLisa assay in SKNBE2 cells Abetatotal pIC50 [3]: 8.86
